Results: US12583895B2, “Polypeptides for restoring endothelial function and methods of use thereof” (Vanderbilt University, priority 2019, dated 2026)

Legend:
rat aorta = test: Carbachol-induced relaxation of anisomycin-treated rat aorta; type: cell-based; details: rat aorta; anisomycin 200 μM, 1 h
Experimental: (§1) RA rings were suspended in a muscle bath and incubated with either buffer alone (Ctrl), Aniso (200 μM) for 1 h, or NiPp (500 μM) for 30 min followed by Aniso (200 μM) for 1 h. […] Proteins were extracted […] immunoblotted to examine p38MAPK phosphorylation. Quantification of relative phosphorylation to total p38MAPK level is shown. n=10, *p<0.05 in one-way ANOVA with Tukey post-test. NiPp restores endothelial dysfunction and reduced p38 MAPK phosphorylation induced by anisomycin in RA.
RA rings were suspended in a muscle bath and incubated with either buffer alone (Ctrl), Aniso (200 μM) for 1 h, or NiPp (500 μM) for 30 min followed by Aniso (200 μM) for 1 h. […] The force generated was determined and was adjusted to the weight and length of the tissue. Representative tracings from 1 out of 6 different rats are shown. […] Proteins were extracted and phosphorylation of p38 MAPK was determined by Western blot analysis. […] Data are expressed as mean±SD. […]
This produced the maximal force tension relationship as previously described. […] Contractile responses were defined by stress, calculated using force generated by tissues as follows: stress (×10^5 N/m^2)=force (g)×0.0987/area, where area=wet weight (mg)/at maximal length (mm)]/1.055.
Relaxation was calculated as percent change in stress compared to the maximal PE-induced contraction (set as 100%). […]

p38 MAPK phosphorylation = p38 MAPK phosphorylation (Western blot) in anisomycin-treated rat aorta; type: cell-based; details: anisomycin 200 μM, 1 h
Experimental: as §1
RA rings were suspended in a muscle bath and incubated with either buffer alone (Ctrl), Aniso (200 μM) for 1 h, or NiPp (500 μM) for 30 min followed by Aniso (200 μM) for 1 h. […] The force generated was determined and was adjusted to the weight and length of the tissue. […] Proteins were extracted and phosphorylation of p38 MAPK was determined by Western blot analysis. […] Data are expressed as mean±SD.
p38 MAPK activation with Anisomycin. […] After treatments, endothelial-dependent relaxation was determined or tissues were snap-frozen for Western blot analysis.
Western blot Analysis. […] The protein-antibody complexes were visualized and quantified using the Odyssey Infrared Imaging System. Phosphorylation was calculated as a ratio of the phosphorylated protein to total protein and was then normalized to the untreated tissues (Ctrl) with the control value set as 1.0.

Compound: COc1ccc(C[C@H]2NC[C@H](O)[C@H]2OC(C)=O)cc1 [Anisomycin, anisomycin, reference compound]
- effect of anisomycin alone on endothelial dependent relaxation (rat aorta): impaired
- effect of anisomycin alone on phosphorylation of p38 MAPK (p38 MAPK phosphorylation): increases
